Test results taken from US8580821B2, “Serotonin transporter (SERT) inhibitors for the treatment of depression and anxiety” (Hoffmann-La Roche Inc., priority 2006, dated 2013).
Counter-ions that a name gives are not always drawn. Like-named read-outs stand apart in the source and are kept apart here.

Columns and labels:
recombinant human SERT = molecular target: T1, recombinant human SERT (Homo sapiens, UniProt P31645); experiment: hSERT SPA binding assay ([3H]citalopram displacement, HEK-293 membranes)
T1 construct: expressed in transfected cells
T1 sequence (P31645 whole entry): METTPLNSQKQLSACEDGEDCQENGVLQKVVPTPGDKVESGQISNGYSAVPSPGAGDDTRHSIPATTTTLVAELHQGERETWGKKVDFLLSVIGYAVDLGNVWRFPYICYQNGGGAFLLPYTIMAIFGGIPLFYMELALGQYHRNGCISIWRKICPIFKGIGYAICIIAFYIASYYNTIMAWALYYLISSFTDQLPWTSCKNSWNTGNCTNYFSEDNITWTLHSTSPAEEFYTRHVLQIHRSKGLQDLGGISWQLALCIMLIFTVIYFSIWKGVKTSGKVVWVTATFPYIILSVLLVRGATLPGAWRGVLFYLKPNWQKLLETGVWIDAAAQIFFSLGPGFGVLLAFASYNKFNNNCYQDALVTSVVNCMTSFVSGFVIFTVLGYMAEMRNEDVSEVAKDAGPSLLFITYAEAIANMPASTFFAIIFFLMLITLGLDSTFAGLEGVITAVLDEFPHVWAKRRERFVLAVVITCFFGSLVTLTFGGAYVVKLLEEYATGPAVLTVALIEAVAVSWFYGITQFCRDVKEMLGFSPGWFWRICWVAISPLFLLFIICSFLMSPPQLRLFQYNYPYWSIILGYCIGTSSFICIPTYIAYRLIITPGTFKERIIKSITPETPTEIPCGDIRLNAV
Protocol: HEK-293 cells stably expressing recombinant human SERT are maintained with DMEM high glucose with 10% FBS, 300 μg/ml G418 and 2 mM L-Glutamine and incubated at 37° C. with 5% CO2. Cells are released from culture flasks using PBS for 1-2 min. The cells are subsequently centrifuged at 1000 g's for 5 min and resuspended in PBS prior to being used in the membrane preparation.
Cells are homogenized using a Polytron in 50 mM Tris (pH 7.4). Centrifuged at 48,000×g for 15 min, and the pellet resuspended in fresh buffer. After a second centrifugation, the pellet is re-homogenized and resuspended in fresh buffer. Typically, membrane portions are aliquoted in 3 mg/ml (w:v). and stored at 80° C.
A serial dilution of test compounds in 50 mM Tris-HCl, 120 mM NaCl, KCl 5 mM (pH 7.4) is made in a white Optiplate (Packard) (100 μl/well) and the radioligand ^3[H] Citalopram (Specific activity: 60-86 Ci/mmol, Final concentration: 1 nM) is added at 50 μl/well. Membrane and beads are prepared to a ratio of 5 μg:0.6 mg, with 0.6 mg PVT-WGA Amersham beads (Cat# RPQ0282V) added per well. 50 μl of the membrane/bead mixture is added to the assay plate for a final volume of 200 μl. The mixtures are allowed to stand at room temperature for one hour, and are then counted on a Packard TopCount.
The inhibition dissociation constant (Ki) of each compound is determined according to the method of Cheng-Prusoff.

human NK-1 receptor = molecular target: T2, human NK-1 receptor (Homo sapiens, UniProt P25103); experiment: hNK-1 binding assay ([3H]substance P displacement, transfected CHO cells)
T2 construct: expressed in transfected cells; host or cells: CHO cells, Semliki virus expression system; membrane suspension
T2 sequence (P25103 whole entry): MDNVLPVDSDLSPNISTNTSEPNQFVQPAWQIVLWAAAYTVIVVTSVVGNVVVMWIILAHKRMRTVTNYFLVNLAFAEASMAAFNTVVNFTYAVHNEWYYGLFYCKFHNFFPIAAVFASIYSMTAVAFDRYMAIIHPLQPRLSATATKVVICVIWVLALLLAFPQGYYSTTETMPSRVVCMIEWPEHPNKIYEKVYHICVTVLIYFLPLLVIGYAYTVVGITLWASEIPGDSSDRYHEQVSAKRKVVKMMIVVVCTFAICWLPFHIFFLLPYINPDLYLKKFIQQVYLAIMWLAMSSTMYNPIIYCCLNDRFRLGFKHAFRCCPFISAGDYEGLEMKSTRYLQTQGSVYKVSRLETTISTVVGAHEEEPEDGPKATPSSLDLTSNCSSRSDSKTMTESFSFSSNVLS
Protocol: The affinity of test compounds for the NK-1 receptor was evaluated at human NK-1 receptors in CHO cells transfected with the human NK-1 receptor using the Semliki virus expression system and radiolabelled with [^3H]substance P (final concentration 0.6 nM). Binding assays were performed in HEPES buffer (50 mM, pH 7.4) containing BSA (0.04%) leupeptin (8 μg/ml), MnCl2 (3 mM) and phosphoramidon (2 μM). Binding assays consisted of 250 μl of membrane suspension (1.25×10^5 cells/assay tube), 125 μl of buffer of displacing agent and 125 μl of [^3H]substance P. Displacement curves were determined with at least ten concentrations of the compound. The assay tubes were incubated for 60 min at room temperature after which time the tube contents were rapidly filtered under vacuum through GF/C filters presoaked for 60 min with PEI (0.3%) with 2×2 ml washes of HEPES buffer (50 mM, pH 7.4). The radioactivity retained on the filters was measured by scintillation counting. All assays were performed in duplicate in at least 2 separate experiments.
The inhibition dissociation constant (Ki) of each compound for NK1 is determined as described above for hSERT.

[1] = read-out: pKi hSERT (converted)
[2] = [3H]substance P 0.6 nM, CHO cells transfected with human NK-1 receptor, read-out: pKi hNK1 (converted)

Row | SMILES | Ki (recombinant human SERT; [1]) [nM] | Ki (human NK-1 receptor; [2]) [nM] | Ki (human NK-1 receptor) [nM] | Ki (recombinant human SERT) [nM]
1 | CN(Cc1cc(C(F)(F)F)cc(C(F)(F)F)c1)C[C@@H]1CNCC[C@H]1c1ccc(F)cc1 [Example 2 of III, reference compound] | 708 | 20.4 | – | –
2 | Cc1ccccc1C1=C(COCc2cc(C(F)(F)F)cc(C(F)(F)F)c2)CNCC1 [Example 7 of I, 5-(3,5-Bis-trifluoromethyl-benzyloxymethyl)-4-o-tolyl-1,2,3,6-tetrahydro-pyridine hydrochloride] | 32.4 | – | 3.16 | –
3 | N#CCN1CC[C@@H](c2ccc(F)cc2)[C@H](COCc2cc(C(F)(F)F)cc(C(F)(F)F)c2)C1 [Example 3 of I, (−)-[(3S,4R)-3-(3,5-Bis-trifluoromethyl-benzyloxymethyl)-4-(4-fluoro-phenyl)-piperidin-1-yl]-acetonitrile] | 141 | 21.4 | – | –
4 | [O-][S+](Cc1cc(C(F)(F)F)cc(C(F)(F)F)c1)C[C@@H]1CNCC[C@H]1c1ccc(F)cc1 (stereo partly shown) [Example 2 of II, reference compound] | 3020 | 63.1 | – | –
5 | Fc1ccc([C@@H]2CCNC[C@H]2COCc2cccc(C(F)(F)F)c2)cc1 [Example 4 of I, (−)-(3S,4R)-4-(4-Fluoro-phenyl)-3-(3-trifluoromethyl-benzyloxymethyl)-piperidine hydrochloride] | – | 148 | – | 17
6 | Fc1ccc([C@@H]2CCNC[C@H]2COCc2cc(C(F)(F)F)cc(C(F)(F)F)c2)cc1 [Example 1 of I, (−)-(3S,4R)-3-(3,5-Bis-trifluoromethyl-benzyloxymethyl)-4-(4-fluoro-phenyl)-piperidine hydrochloride] | 6.17 | – | 12.6 | –
7 | O=S(=O)(Cc1cc(C(F)(F)F)cc(C(F)(F)F)c1)C[C@@H]1CNCC[C@H]1c1ccc(F)cc1 [Example 3 of II, reference compound] | – | 13.5 | – | –
8 | CS(=O)(=O)N(Cc1cc(C(F)(F)F)cc(C(F)(F)F)c1)C[C@@H]1CNCC[C@H]1c1ccc(F)cc1 [Example 4 of III, reference compound] | 10000 | 30.2 | – | –
9 | Fc1ccc([C@@H]2CCNCC2CNCc2cc(C(F)(F)F)cc(C(F)(F)F)c2)cc1 (stereo partly shown) [Example 1 of III, reference compound] | 724 | 12.6 | – | –
10 | FC(F)(F)c1cc(COC[C@@H]2CNCC[C@H]2c2ccccc2)cc(C(F)(F)F)c1 (racemic) [Example 5 of I, (3SR,4RS)-3-(3,5-Bis-trifluoromethyl-benzyloxymethyl)-4-phenyl-piperidine hydrochloride] | 11 | 8.91 | – | –
11 | CC(=O)N(Cc1cc(C(F)(F)F)cc(C(F)(F)F)c1)C[C@@H]1CNCC[C@H]1c1ccc(F)cc1 [Example 3 of III, reference compound] | 10000 | 13.8 | – | –
12 | Cc1ccccc1[C@@H]1CCNC[C@H]1COCc1cc(C(F)(F)F)cc(C(F)(F)F)c1 (relative stereo) [Example 6 of I, (−)-(trans)-3-(3,5-Bis-trifluoromethyl-benzyloxymethyl)-4-o-tolyl-piperidine hydrochloride] | 32.4 | 24 | – | –
13 | CN1CC[C@@H](c2ccc(F)cc2)[C@H](COCc2cc(C(F)(F)F)cc(C(F)(F)F)c2)C1 [Example 2 of I] | 107 | 8.13 | – | –
